Patent US20030087395A1, “Cardiotrophin-like cytokine” (Human Genome Sciences, Inc., priority 1997, published 2003)

Tests used:
Jurkat T-cells = assay: Jurkat:GAS-SEAP screening assay for T-cell activity; type: cell-based; conditions: 100 Unit/ml, typically observed
Experimental: The following protocol is used to assess T-cell activity of CLC by determining whether CLC supernatant proliferates and/or differentiates T-cells. T-cell activity is assessed using the GAS/SEAP/Neo construct produced in Example 6. Thus, factors that increase SEAP activity indicate the ability to activate the Jaks-STATs signal transduction pathway. The T-cell used in this assay is Jurkat T-cells (ATCC Accession No. TIB-152), although Molt-3 cells (ATCC Accession No. CRL-1552) and Molt-4 cells (ATCC Accession No. CRL-1582) cells can also be used.
Jurkat T-cells are lymphoblastic CD4+ Th1 helper cells. In order to generate stable cell lines, approximately 2 million Jurkat cells are transfected with the GAS-SEAP/neo vector using DMRIE-C (Life Technologies; transfection procedure described below). The transfected cells are seeded to a density of approximately 20,000 cells per well and transfectants resistant to 1 mg/ml geneticin selected. Resistant colonies are expanded and then tested for their response to increasing concentrations of interferon gamma.
Specifically, the following protocol will yield sufficient cells for 75 wells containing 200 μl of cells. Thus, it is either scaled up, or performed in multiple to generate sufficient cells for multiple 96 well plates. Jurkat cells are maintained in RPMI+10% serum with 1% Pen-Strep. […]

U937 cells = assay: GAS-SEAP/U937 assay identifying myeloid activity; type: cell-based; conditions: 100 Unit/ml; U937 GAS-SEAP; typically observed
Experimental: The following protocol is used to assess myeloid activity of CLC by determining whether CLC proliferates and/or differentiates myeloid cells. Myeloid cell activity is assessed using the GAS/SEAP/Neo construct produced in Example 6. Thus, factors that increase SEAP activity indicate the ability to activate the Jaks-STATS signal transduction pathway. The myeloid cell used in this assay is U937, a pre-monocyte cell line, although TF-1, HL60, or KG1 can be used.
To transiently transfect U937 cells with the GAS/SEAP/Neo construct produced in Example 6, a DEAE-Dextran method (Kharbanda, et. al., Cell Growth & Differentiation 5:259-265 (1994)) is used. First, harvest 2×10^7 U937 cells and wash with PBS. The U937 cells are usually grown in RPMI 1640 medium containing 10% heat-inactivated fetal bovine serum (FBS) supplemented with 100 units/ml penicillin and […] streptomycin.
Next, suspend the cells in 1 ml of 20 mM Tris-HCl (pH 7.4) buffer containing 0.5 mg/ml DEAE-Dextran, 8 ug GAS-SEAP2 plasmid DNA, 140 mM NaCl, 5 mM KCl, 375 μM Na2HPO47H2O, […], and 675 μM CaCl2. Incubate at 37° C. for 45 min.
Wash the cells with RPMI 1640 medium containing 10% FBS and then resuspend in 10 ml complete medium and incubate at 37° C. for 36 hr.
The GAS-SEAP/U937 stable cells are obtained by growing the cells in 400 μg/ml G418. […]

STATS = conditions: numbers of the STATs activated; adapted from Schidler and Darnell review; cited from earlier work
GAS or ISRE = conditions: element bound; adapted from Schidler and Darnell review; cited from earlier work
[1] = tested on: NF-κB promoter element in Jurkat T-cells; assay: NF-κB/SEAP screening assay in Jurkat T-cells; type: cell-based; conditions: 0.1, 1, 10 ng, typically observed
Experimental: Due to its central role and ability to respond to a range of stimuli, reporter constructs utilizing the NF-κB promoter element are used to screen the supernatants produced in Example 6. Activators or inhibitors of NF-κB would be useful in treating diseases. For example, inhibitors of NF-κB could be used to treat those diseases related to the acute or chronic activation of NF-κB, such as rheumatoid arthritis and others.
PCR amplification is performed using the SV40 promoter template present in the pb-gal:promoter plasmid obtained from Clontech. The resulting PCR fragment is digested with Xho I and Hind III and subcloned into BLSK2-(Stratagene). Sequencing with the T7 and T3 primers confirms the insert contains the following sequence: 5′-CTC
Next, replace the SV40 minimal promoter element present in the pSEAP2-promoter plasmid (Clontech) with this NF-κB/SV40 fragment using Xho I and Hind III.
Particularly, the NF-κB/SV40/SEAP cassette was inserted into pGFP-1 (Clontech), replacing the GFP gene, after restricting pGFP- 1 with Sal I and Not I.
Once NF-κB/SV40/SEAP/Neo vector is created, stable Jurkat T-cells are created and maintained according to the protocol described in Example 9. Similarly, the method for assaying supernatants with these stable Jurkat T-cells is also described in Example 9. […]

PC12 cells = assay: EGR-SEAP/PC12 screening assay for neuronal activity; type: cell-based, rat; conditions: 50 ng/ul; PC12 EGR-SEAP; typically seen
Source text: Particularly, the following protocol is used to assess neuronal activity in PC12 cell lines. PC12 cells (rat phenochromocytoma cells) are known to proliferate and/or differentiate by activation with a number of mitogens, such as TPA (tetradecanoyl phorbol acetate), NGF (nerve growth factor), and EGF (epidermal growth factor). The EGR1 gene expression is activated during this treatment. Thus, by stably transfecting PC12 cells with a construct containing an EGR promoter linked to SEAP reporter, activation of PC12 cells by CLC can be assessed.
The EGR/SEAP reporter construct can be assembled by the following protocol. The EGR-1 promoter sequence (−633 to +1; Sakamoto, K., et al., Oncogene 6:867-871 (1991)) can be PCR amplified from human genomic DNA using the following primers. The 5′ primer has the sequence: 5′-GCGCTCGAGGGATGACAGCGATAGAACCCCGG-3′ (SEQ ID NO:19) and the 3′ primer has the sequence: 5′-GCGAAGCTTCGCGACTCCCCGGATCCGCCTC-3′ (SEQ ID NO:20).
Using the GAS:SEAP/Neo vector produced in Example 6, EGR1 amplified product can then be inserted into this vector. Linearize the GAS:SEAP/Neo vector using restriction enzymes Xho I and Hind III, removing the GAS/SV40 stuffer. Restrict the EGR1 amplified product with these same enzymes. Ligate the vector and the EGR1 promoter. […]

interferon gamma: positive control known to activate Jurkat T cells and U937 cells [reference compound]
induction of SEAP in positive control wells (Jurkat T-cells): Over 30 fold
induction of SEAP in positive control wells (U937 cells): Over 30 fold
STATS (STATS): 1
GAS or ISRE (GAS or ISRE): GAS

TNF alpha
activation in positive control wells [1]: 5-10 fold

NGF: growth factor known to activate PC12 cells through EGR
induction of SEAP in positive control wells (PC12 cells): Over fifty-fold induction
